The subject of the assay is BDNF. Nature of the assay: BDNF transcript expression in the uterus of ovariectomized mice by Real Time PCR. In kind it is in vivo. The settings on record: estradiol primed, Real Time PCR relative expression, FIG. 8. As to the method:
BDNF transcripts were measured in the murine uterus of ovariectomized mice by Real Time PCR and relative expression quantified in mice receiving saline (Control (n=4)), estradiol primed then estradiol (E2 (n=6)), estradiol primed then progesterone (P4 (n=6)), estradiol primed then estradiol+progesterone (E2+P4 (n=6)), or estradiol primed then saline (Saline (n=4). [table]
(Real-time PCR tracks product formation cycle by cycle.)

The record followed here is patent publication US12607622B2, “Method for diagnosing and monitoring inflammatory disease progression” (MCMASTER UNIVERSITY, priority 2013, dated 2026).

In the case of `CC(=O)[C@H]1CC[C@H]2[C@@H]3CCC4=CC(=O)CC[C@]4(C)[C@H]3CC[C@]12C` [P4, progesterone], the “BDNF expression in the uterus” value is “significantly increased”.
